Some results are limits rather than exact numbers.

9 molecules from patent publication EP4534147A1, “STING ANTAGONIST COMPOUNDS” (Sulis Therapeutics ApS, priority 2023, dated 2025) can be followed below.

The target of assay [1] is T1, C-terminal domain (CTD) of human STING (Homo sapiens, UniProt Q86WV6). Description: STING binding FP assay I (fluorescence polarization competition binding). Further details: recombinant human STING protein (155-379). As to conditions: recombinant human STING protein (155-379), 35 nM STING, 4 nM fluorescein-labelled STING ligand (Probe 1), 20 min at room temperature. How it is done:
(§1) The interaction between molecules and the C-terminal domain (CTD) of human STING was evaluated using a competition binding assay. In this assay, recombinant human STING protein (155-379) and a STING binding fluorescent probe were employed. Upon binding of the probe to STING, the rotation of the fluorescent probe is slowed due to the larger molecular size of the protein-bound complex. As a result, emitted light retains its plane of polarization, leading to an increase in fluorescence polarization. Molecules competing for the probe binding site displace the probe, which leads to rapid randomization of the polarization plane of the emitted light and a subsequent decrease in measured fluorescence polarization signal. Change in polarization was measured, allowing a comparative evaluation of the binding affinities of different compounds to the target protein.
(§2) The assay was performed in 96-well plates (ThermoFisher, cat.# 237108) containing 100 µl : 10 µL test compound in 10% DMSO and buffer A (150 mM NaCl, 50 mM HEPES pH 7.5, 1 mM DTT) + 90 µL prepared master mix solution of: 4 nM fluorescein-labelled STING ligand (Probe 1; synthesis described above) in buffer A + 0.055% Tween-20 (v/v) and 35 nM STING in buffer A. Post mixing, plates were agitated at 600 rpm and incubated for 20 min at room temperature. Subsequent measurements of the fluorescence polarization signal were made on a BioTek Synergy-H1 plate reader, using a polarization filter; excitation: 485/20 nm, emission: 528/20 nm) with a gain-setting of 75. IC50 values were determined using a standard non-linear regression four-parameter curve fit in Graphpad Prism.
Target sequence in this assay (Q86WV6 155-379): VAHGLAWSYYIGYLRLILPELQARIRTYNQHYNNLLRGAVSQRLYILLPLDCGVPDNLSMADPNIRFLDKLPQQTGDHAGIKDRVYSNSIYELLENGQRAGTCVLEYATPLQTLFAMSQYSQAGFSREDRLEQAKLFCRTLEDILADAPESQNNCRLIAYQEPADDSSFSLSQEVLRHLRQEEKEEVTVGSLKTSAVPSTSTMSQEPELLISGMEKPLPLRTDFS
On the technique in general: Polarisation of emitted light reports the rotation of a fluorescent probe.

The target of the next assay is T2, STING (Homo sapiens, UniProt Q86WV6).
T2 construct: endogenous in cells; host or cells: human skin fibroblasts
The assay is described as follows: Human FB STING antagonist assay (IFN-a/b release). Format: cell-based. Conditions: Human skin fibroblasts, 2h pre-treatment, 300 nM GSK STING agonist (CAS number: 2138299-34-8) for 20 h, release of IFN-a/b by HEK-Blue IFN-α/β bioassay. How it is done:
STING antagonist activity can be determined by a human fibroblast antagonist assay. For this, human skin fibroblasts are pre-treated for 2h with a serial dilution of the compound, and are then stimulated for 20 hours with 300 nM STING agonist (e.g. from GSK, CAS number: 2138299-34-8). Supernatants are then harvested and assessed for IFN-a/b release, which indicates STING activation. IFN-a/b concentration in the supernatant is determined, e.g. using an IFN-α/β bioassay. IC50 values are calculated using a non-linear regression fitting, variable slope (4 parameters).
Human skin fibroblasts were pre-treated for 2h with a serial dilution of test compound followed by stimulation with mock or 300 nM GSK STING agonist (CAS number: 2138299-34-8). Supernatants were harvested after 20 h of STING agonist stimulation. Release of IFN-a/b was determined using HEK-Blue IFN-α/β bioassay (Invivogen). Cellular viability was assessed using Alamar Blue HS assay. IC50 values were estimated using a non-linear regression fitting, variable slope (4 parameters) in GraphPad Prism 9.3.1.

The target in assay [2] is T1, C-terminal domain (CTD) of human STING. The assay is described as follows: STING binding FP assay II (as FP assay I, lower STING concentration). Further details: recombinant human STING protein (155-379). Conditions: 7 nM STING in buffer A, 4 nM fluorescein-labelled STING ligand (Probe 1). How it is done: as §1, §2
Target sequence in this assay (Q86WV6 155-379): as above
The procedure for STING binding FP assay II is the same as described for STING binding FP assay I, except for a lower STING concentration. In STING binding FP assay II, a concentration of 7 nM STING in buffer A was used.

Assay [3] has the same target. The assay is described as follows: STING binding TR-FRET assay (CisBio Human STING WT Binding Kit). Conditions: recombinant human STING with His-tag, D2-labeled active site probe, 60 min at room temperature. On the set-up: purchased CisBio 64BDSTGPEG
Target sequence in this assay (Q86WV6 135-379 limits assumed): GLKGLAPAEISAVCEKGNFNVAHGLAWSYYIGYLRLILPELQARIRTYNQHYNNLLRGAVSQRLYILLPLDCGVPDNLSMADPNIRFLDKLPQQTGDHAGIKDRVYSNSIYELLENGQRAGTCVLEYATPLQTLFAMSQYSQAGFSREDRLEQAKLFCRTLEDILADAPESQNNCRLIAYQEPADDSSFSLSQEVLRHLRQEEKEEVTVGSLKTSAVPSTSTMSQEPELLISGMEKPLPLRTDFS
As to the method:
STING binding can be determined by a time-resolved FRET assay. For instance, a STING protein having a His-tag can be used. A D2-labeled active site probe can be used to accept 620 nm emission from Anti-HIS-Tb-STING. Increased fluorescence is measured at 665 nm. Molecules that compete for the probe binding site will result in a lower 665 nm signal. The assay can be performed in low-volume white 96-well plates containing 5 µL compounds in an appropriate diluent buffer. Following 60 minutes incubation at room temperature in the dark, fluorescence emission at 665 nm is measured following 330 nm xenon flash excitation. pIC50 values can be determined using a standard four parameter curve fit.
The affinity of molecules to the C-terminal domain (CTD) of human STING was determined using a commercial Human STING WT Binding Kit (CisBio, cat.# 64BDSTGPEG). In this time-resolved FRET assay, a recombinant human STING protein construct with a His-tag was employed. When bound to STING, a D2-labeled active site probe accepts the 620 nm emission from Anti-HIS-Tb-STING and an increase in fluorescence is measured at 665 nm. Molecules that compete for the probe binding site will result in a low 665 nm signal. The assay was run in CisBio low-volume white 96-well plates (catalog# 66PL96005) containing 5 µL compounds in Diluent Buffer (supplied with the CisBio kit). A solution of 1xSTING, 1x Anti-HIS-Tb and 1X D2-probe in TB detection buffer (kit supplied) was added to the plate. Plates were centrifuged for 2 min at 500 rpm, incubated for 60 min at room temperature in the dark, and then fluorescence emission at 665 nm following 330 nm xenon flash excitation on an BioTek synergy H1 multimode reader (Agilent) was measured. The plC50 values were determined using a standard four parameter curve fit in GraphPad Prism.
For orientation: Time-resolved FRET reads energy transfer from a long-lived donor to a nearby acceptor.

T2 sequence (Q86WV6 whole entry): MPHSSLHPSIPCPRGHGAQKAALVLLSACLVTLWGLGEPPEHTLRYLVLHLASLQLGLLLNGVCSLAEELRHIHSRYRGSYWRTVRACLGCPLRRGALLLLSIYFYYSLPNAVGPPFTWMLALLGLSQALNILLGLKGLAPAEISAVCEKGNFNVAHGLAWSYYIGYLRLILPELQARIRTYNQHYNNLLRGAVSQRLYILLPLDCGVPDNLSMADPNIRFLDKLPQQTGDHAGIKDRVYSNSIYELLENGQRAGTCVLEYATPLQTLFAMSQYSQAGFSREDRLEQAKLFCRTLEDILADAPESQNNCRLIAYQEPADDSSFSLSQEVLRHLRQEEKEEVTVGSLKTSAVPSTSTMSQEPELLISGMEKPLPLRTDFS

As to `CCOC(=O)COC(CCn1c(=NC(=O)c2cc(C)nn2CC)n(C)c2cc(C(N)=O)ccc21)CCn1c(=NC(=O)c2cc(C)nn2CC)n(C)c2cc(C(N)=O)ccc21` (stereo not drawn) [Example 2, Ethyl (3-{5-carbamoyl-2-[(1-ethyl-3-methyl-5-pyrazolyl)carbonylimino]-3-methyl-2,3-dihydro-1H-1,3-benzimidazol-1-yl}-1-(2-{5-carbamoyl-2-[(1-ethyl-3-methyl-5-pyrazolyl)carbonylimino]-3-methyl-2,3-dihydro-1H-1,3-benzimidazol-1-yl}ethyl)propoxy)acetate], the IC50 in assay [1] was below 30 nM; on STING, 2500 nM.
On the same counts, the results for `CCn1nc(C)cc1C(=O)N=c1n(C)c2cc(C(N)=O)ccc2n1CCC(CCn1c(=NC(=O)c2cc(C)nn2CC)n(C)c2cc(C(N)=O)ccc21)OCC(=O)Nc1ccncn1` (stereo not drawn) [Example 8, 1-{3-[(N-4-Pyrimidinylcarbamoyl)methoxy]-5-{5-carbamoyl-2-[(1-ethyl-3-methyl-5-pyrazolyl)carbonylimino]-3-methyl-2,3-dihydro-1H-1,3-benzimidazol-1-yl}pentyl}-2-[(1-ethyl-3-methyl-5-pyrazolyl)carbonylimino]-3-methyl-2,3-dihydro-1H-1,3-benzimidazole-5-carboxamide] are below 30 nM and 4700 nM.
As for `CCn1nc(C)cc1C(=O)N=c1n(C)c2cc(C(N)=O)ccc2n1CCC(CCn1c(=NC(=O)c2cc(C)nn2CC)n(C)c2cc(C(N)=O)ccc21)OCC(=O)NC1CCN(C)CC1` (stereo not drawn) [Example 10, 1-{3-[(N-1-Methyl-4-piperidylcarbamoyl)methoxy]-5-{5-carbamoyl-2-[(1-ethyl-3-methyl-5-pyrazolyl)carbonylimino]-3-methyl-2,3-dihydro-1H-1,3-benzimidazol-1-yl}pentyl}-2-[(1-ethyl-3-methyl-5-pyrazolyl)carbonylimino]-3-methyl-2,3-dihydro-1H-1,3-benzimidazole-5-carboxamide], the IC50 came out at 3.5 nM in assay [2] and 0.869 nM in assay [3].
In the case of `CCn1nc(C)cc1C(=O)N=c1n(C)c2cc(C(N)=O)ccc2n1CCC(CCn1c(=NC(=O)c2cc(C)nn2CC)n(C)c2cc(C(N)=O)ccc21)OCC(=O)N1CCC[C@H]1c1cccc(OC)c1` (stereo partly drawn) [Example 11, 1-(3-{2-[(S)-2-(3-Methoxyphenyl)-1-pyrrolidinyl]-2-oxoethoxy}-5-{5-carbamoyl-2-[(1-ethyl-3-methyl-5-pyrazolyl)carbonylimino]-3-methyl-2,3-dihydro-1H-1 ,3-benzimidazol-1-yl}pentyl)-2-[(1-ethyl-3-methyl-5-pyrazolyl)carbonylimino]-3-methyl-2,3-dihydro-1H-1,3-benzimidazole-5-carboxamide], the results for the half-maximal inhibitory concentration (IC50) (in assay [2]; in assay [3]; at STING) were 2 nM, 0.862 nM and 3400 nM, respectively.
As to `CCn1nc(C)cc1C(=O)N=c1n(C)c2cc(C(N)=O)ccc2n1CCC(CCn1c(=NC(=O)c2cc(C)nn2CC)n(C)c2cc(C(N)=O)ccc21)OCC(=O)N(Cc1ccc(OC)cc1)C1CC1` (stereo not drawn) [Example 14, 1-[3-({N-Cyclopropyl[(p-methoxyphenyl)methyl]carbamoyl}methoxy)-5-{5-carbamoyl-2-[(1-ethyl-3-methyl-5-pyrazolyl)carbonylimino]-3-methyl-2,3-dihydro-1H-1,3-benzimidazol-1-yl}pentyl]-2-[(1-ethyl-3-methyl-5-pyrazolyl)carbonylimino]-3-methyl-2,3-dihydro-1H-1,3-benzimidazole-5-carboxamide], the IC50 in assay [3] came out at 0.659 nM.
The same measure, in the same setting: to `CCn1nc(C)cc1C(=O)N=c1n(C)c2cc(C(N)=O)ccc2n1CCC(CCn1c(=NC(=O)c2cc(C)nn2CC)n(C)c2cc(C(N)=O)ccc21)OCC(=O)N1[C@H](C)COC[C@@H]1C` (stereo partly drawn) [Example 17, 1-(3-{2-[(3R,5S)-3,5-Dimethyl-4-morpholinyl]-2-oxoethoxy}-5-{5-carbamoyl-2-[(1-ethyl-3-methyl-5-pyrazolyl)carbonylimino]-3-methyl-2,3-dihydro-1H-1,3-benzimidazol-1-yl}pentyl)-2-[(1-ethyl-3-methyl-5-pyrazolyl)carbonylimino]-3-methyl-2,3-dihydro-1H-1,3-benzimidazole-5-carboxamide] belongs 0.54 nM.
The same measure, in the same setting: to `CCn1nc(C)cc1C(=O)N=c1n(C)c2cc(C(N)=O)ccc2n1CCC(CCn1c(=NC(=O)c2cc(C)nn2CC)n(C)c2cc(C(N)=O)ccc21)OCC(=O)N(Cc1ccc(OC)cc1)Cc1ccccn1` (stereo not drawn) [Example 19, 1-(5-{5-Carbamoyl-2-[(1-ethyl-3-methyl-5-pyrazolyl)carbonylimino]-3-methyl-2,3-dihydro-1H-1,3-benzimidazol-1-yl}-3-({[(p-methoxyphenyl)methyl][(2-pyridyl)methyl]carbamoyl}methoxy)pentyl)-2-[(1-ethyl-3-methyl-5-pyrazolyl)carbonylimino]-3-methyl-2,3-dihydro-1H-1,3-benzimidazole-5-carboxamide] belongs 1.11 nM; to `CCn1nc(C)cc1C(=O)N=c1n(C)c2cc(C(N)=O)ccc2n1CCC(CCn1c(=NC(=O)c2cc(C)nn2CC)n(C)c2cc(C(N)=O)ccc21)OCC(=O)N1CCC[C@@H]1c1ccc(OC)cc1` (stereo partly drawn) [Example 20, 1-(3-{2-[(R)-2-(p-Methoxyphenyl)-1-pyrrolidinyl]-2-oxoethoxy}-5-{5-carbamoyl-2-[(1-ethyl-3-methyl-5-pyrazolyl)carbonylimino]-3-methyl-2,3-dihydro-1H-1,3-benzimidazol-1-yl}pentyl)-2-[(1-ethyl-3-methyl-5-pyrazolyl)carbonylimino]-3-methyl-2,3-dihydro-1H-1,3-benzimidazole-5-carboxamide], 0.95 nM.
For the molecule `CCn1nc(C)cc1C(=O)N=c1n(C)c2cc(C(N)=O)ccc2n1CCC(CCn1c(=NC(=O)c2cc(C)nn2CC)n(C)c2cc(C(N)=O)ccc21)OCC(=O)N1CCOC[C@@H]1c1ccccc1` (stereo partly drawn) [Example 30, 1-(3-{2-[(S)-3-Phenyl-4-morpholinyl]-2-oxoethoxy}-5-{5-carbamoyl-2-[(1-ethyl-3-methyl-5-pyrazolyl)carbonylimino]-3-methyl-2,3-dihydro-1H-1,3-benzimidazol-1-yl}pentyl)-2-[(1-ethyl-3-methyl-5-pyrazolyl)carbonylimino]-3-methyl-2,3-dihydro-1H-1,3-benzimidazole-5-carboxamide], the values for the concentration for half-maximal inhibition (IC50) (in assay [2]; at STING) were 3.7 nM and 3600 nM, respectively.

In general, IC50 refers to the concentration that inhibits the measured activity by half.
